The values below come from patent EP1658844A1, “Use of artemisinin derivatives in the manufacture of a medicament for the treatment of melanoma” (Schuler, Gerold, priority 2004, dated 2006).

Where only a bound is given, the exact number is not on record here.

The conditions of data set [1]: within the group of artemisinin analogs; cited from earlier work.
In the next data set the test system is nucleic acid synthesis. The note with it: cited from earlier work.
In the next data set the test system is P388 leukemia. The following applies: NCI report on NSC 369397; cited from earlier work.
A further data set has as its system tumor. The note with it: combination treatment with ferrous sulfate, three dog studies; cited from earlier work.
Data set [2] has as its system cell line panels consisting of 60 lines. The note with it: 60 cell lines in nine disease-related subpanels; cited from earlier work.
The subject of data set [3] is metastatic uveal melanoma. The protocol:
In the experimental examples below, standard techniques of therapeutical agent administration were used. […] Artesunate was provided by Sanofi Synthelabo, France.
The clinical course of the disease and the treatment modalities are depicted in detail in Figure 1. […] A chemotherapy with Dacarbazin (DTIC) was initiated at a concentration of 850 mg per m^2 body surface.
The clinical course of the disease and the treatment modalities are depicted in detail in Figure 2. […] A chemotherapy with DTIC at a concentration of 850 mg per m^2 body surface was initiated. […] In addition, the patient received an iron medication (three times daily ferroglycine sulfate equivalent to 40 mg Fe^2+) to potentially increase the efficacy of ART.

The subject of a further data set is uveal melanoma. The note with it: largest prospective trial, metastatic uveal melanoma; cited from earlier work.

As to `C[C@H]1[C@@H](OCc2ccc(C(=O)O)cc2)O[C@@H]2O[C@@]3(C)CC[C@H]4[C@H](C)CC[C@@H]1[C@@]24OO3` [artelinic acid], in data set [1], the stability result is “most stable” and the water solubility result is “most water soluble”. The “activity relative to artemisinin in ability to inhibit nucleic acid synthesis” value in the data set with nucleic acid synthesis is reported as 100 times.

As to `C[C@@H]1CC[C@H]2[C@@H](C)C(=O)O[C@@H]3O[C@@]4(C)CC[C@@H]1[C@]32OO4` [Artemisinin], the “activity against P388 leukemia” value with P388 leukemia is “inactive”. Moreover, the tumor size result with tumor is given as “reduction of tumor size”. In data set [2], the anticancer activity entry was “very little anticancer activity”.

As to `C[C@H]1[C@H](OC(=O)CCC(=O)O)O[C@@H]2O[C@@]3(C)CC[C@H]4[C@H](C)CC[C@@H]1[C@@]24OO3` [ART, (3R,5aS,6R,8aS,9R,10S,12R,12aR)-Decahydro-3,6,9-trimethyl-3,12-epoxy-12H-pyrano[4,3-j]1,2-benzodioxepin-10-ol,hydrogen succinate], the “activity relative to artemisinin in ability to inhibit nucleic acid synthesis” value in the data set with nucleic acid synthesis is 100 times. Moreover, in data set [3] (human, in vivo), the “side effects throughout the combination therapy” value is on record as “no additional side effects” and the “toxicity of ART-treatment” value is reported as “without measurable toxicity”. In addition, the “survival after start of the ART/Fotemustine therapy” value in data set [3] (patient 1) is recorded as 11 months. For the same molecule, the “response at first staging” value in data set [3] (patient 1, ART 2 times daily 50 mg p.o. in combination with Fotemustine, three months after initiation) is “mixed response”. The “time to death after entry into stage IV according to AJCC” value in data set [3] (patient 1, DTIC, then Fotemustine, then ART plus chemotherapy) is given as 23 months. The “survival (still alive) after initiation of ART/DTIC-therapy” value in data set [3] (patient 2) was no less than 37 months. For the same molecule, the response entry in data set [3] (patient 2, 50 mg ART twice daily p.o. with DTIC and ferroglycine sulfate, after 21 courses of DTIC, the last 11 with ART) was “objective response”. In data set [3] (patient 2, ART added to Dacarbazin), the “survival (still alive) after first diagnosis of stage IV uveal melanoma” value was no less than 37 months.

`CCCOC(=O)OC1O[C@@H]2O[C@@]3(C)CC[C@H]4[C@H](C)CC[C@@H]([C@H]1C)[C@@]24OO3` (stereo partly drawn) [propylcarbonate dihydroartemisinin]: the “activity relative to artemisinin in ability to inhibit nucleic acid synthesis” value with nucleic acid synthesis is on record as 100 times.

For `CCOP(=O)(OCC)C(C)NC(=O)N(CCCl)N=O` (stereo not drawn) [Fotemustine], the “complete responses (CR)” value with uveal melanoma was “one CR in 48 patients”.

On to `CCO[C@H]1O[C@@H]2O[C@@]3(C)CC[C@H]4[C@H](C)CC[C@@H]([C@H]1C)[C@@]24OO3` [arteether], for which, in the data set with nucleic acid synthesis, the “activity relative to artemisinin in ability to inhibit nucleic acid synthesis” value is 100 times.
